43 compounds from patent publication US12221453B2, “Substituted pyrazolo[5′,1′:2,3]pyrimido[5,4-b][1,4]oxazines as TYK2 inhibitors” (TAKEDA PHARMACEUTICAL COMPANY LIMITED, priority 2018, dated 2025) can be followed below.

Where only a bound is given, the exact number is not on record here.

In the assay the test system is IL-12 induced STAT4 phosphorylation mediated by TYK2/JAK2. Kind of assay: IL-12 induced pSTAT4 in human PBMC. Type of assay: cell-based. The following applies: 1 hr compound, 1.7 ng/mL IL-12 for 30 minutes. The method, boiled down: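 Thawed human PBMC were pre-incubated with compound for 1 hr at 37 °C (0.1% DMSO), then stimulated with 1.7 ng/mL IL-12 for 30 minutes. Phospho-STAT4 and total STAT4 were measured in cell lysates by MSD.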

With `CNc1cc(-c2cn([C@H]3CCC[C@H]3F)c3ncccc23)nc2c(C(=O)N[C@H]3COC[C@H]3O)cnn12` [Compound I-722], the IC50 is less than 0.1 µM. In the case of `CNc1cc(-c2cn([C@H]3COC[C@H]3F)c3ncccc23)nc2c(C(=O)N[C@H]3COC[C@H]3O)cnn12` [Compound I-726] it was less than 0.1 µM. In the case of `CNc1cc(-c2cn([C@H]3COC[C@@H]3OC)c3ccccc23)nc2c(C(=O)NC3CC[C@@H]3OC)cnn12` (stereo partly shown) [Compound I-741] it was less than 0.1 µM; in that of `CNc1cc(-c2cn([C@H]3COC[C@@H]3OC)c3ccccc23)nc2c(C(=O)N[C@H]3CC[C@@H]3OC)cnn12` [Compound I-742], less than 0.1 µM. On to `CNc1cc(-c2cn([C@@H]3COC[C@H]3OC)c3ccccc23)nc2c(C(=O)NC3CC[C@@H]3OC)cnn12` (stereo partly shown) [Compound I-744], for which the 50% inhibitory concentration (IC50) was less than 0.1 µM. As for `CNc1cc(-c2cn([C@@H]3COC[C@H]3OC)c3ccccc23)nc2c(C(=O)N[C@@H]3CC[C@H]3OC)cnn12` [Compound I-746], the IC50 was less than 0.1 µM.

Consider `O=C(N[C@@H]1C[C@@H]1F)c1cnn2c3c(c(Nc4cccc5ocnc45)nc12)OCCN3` [Compound I-752], for which the IC50 was less than 0.1 µM. The compound `CC(C)n1cc(-c2nc3c(C(=O)NC4CC[C@H]4O)cnn3c3c2OCCN3)c2cccnc21` (stereo partly shown) [Compound I-753] gave an IC50 of less than 0.1 µM.

On to `CC(C)n1cc(-c2nc3c(C(=O)N[C@H]4CC[C@H]4O)cnn3c3c2OCCN3)c2cccnc21` [Compound I-754], for which the 50% inhibitory concentration (IC50) is less than 0.1 µM. In turn, `O=C(NC1CC[C@@H]1F)c1cnn2c3c(c(-c4cn([C@H]5C[C@H](O)C5)c5ncccc45)nc12)OCCN3` (stereo partly shown) [Compound I-756] yielded an IC50 of less than 0.1 µM. `O=C(N[C@H]1CC[C@@H]1F)c1cnn2c3c(c(-c4cn([C@H]5C[C@H](O)C5)c5ncccc45)nc12)OCCN3` [Compound I-757] returned an IC50 of less than 0.1 µM. Under `CO[C@@H]1CC[C@H]1NC(=O)c1cnn2c3c(c(Nc4cccn(C(C)C)c4=O)nc12)OCCN3` [Compound I-760] stands less than 0.1 µM. In the case of `CO[C@@H]1CCC1NC(=O)c1cnn2c3c(c(Nc4cccn([C@H]5[C@@H]6COC[C@@H]65)c4=O)nc12)OCCN3` (stereo partly shown) [Compound I-762] it was less than 0.1 µM. Under `CC(C)n1cccc(Nc2nc3c(C(=O)NC4CCC4(F)F)cnn3c3c2OCCN3)c1=O` (stereo not shown) [Compound I-765] stands less than 0.1 µM; under `CC(C)n1cccc(Nc2nc3c(C(=O)N[C@H]4CCC4(F)F)cnn3c3c2OCCN3)c1=O` [Compound I-766], less than 0.1 µM.

Turning to `O=C(NC1CCC1(F)F)c1cnn2c3c(c(Nc4cccn([C@H]5[C@@H]6COC[C@@H]65)c4=O)nc12)OCCN3` (stereo partly shown) [Compound I-768], the half-inhibitory concentration (IC50) was less than 0.1 µM.

In turn, `O=C(N[C@@H]1CCC1(F)F)c1cnn2c3c(c(Nc4cccn([C@H]5[C@@H]6COC[C@@H]65)c4=O)nc12)OCCN3` [Compound I-769] had a half-inhibitory concentration (IC50) of less than 0.1 µM. In turn, `O=C(N[C@@H]1CCC1(F)F)c1cnn2c3c(c(-c4cn(C5COC5)c5ncccc45)nc12)OCCN3` [Compound I-772] registered an IC50 of less than 0.1 µM. `O=C(NC1CC[C@@H]1F)c1cnn2c3c(c(-c4cn(C5COC5)c5ncccc45)nc12)OCCN3` (stereo partly shown) [Compound I-774] yielded an IC50 of less than 0.1 µM. Turning to `O=C(N[C@H]1CCC1(F)F)c1cnn2c3c(c(-c4cn([C@H]5C[C@H](O)C5)c5ncccc45)nc12)OCCN3` [Compound I-776], the half-maximal inhibitory concentration (IC50) was less than 0.1 µM. In the case of `CNc1cc(Nc2cccn([C@H]3C[C@@H](OC)C3)c2=O)nc2c(C(=O)NC3CC[C@@H]3OC)cnn12` (stereo partly shown) [Compound I-780] it was less than 0.1 µM; in that of `CNc1ccc(-c2cc(NC)n3ncc(C(=O)N[C@H]4CC[C@H]4F)c3n2)n2ccnc12` [Compound I-784], less than 0.1 µM. In the case of `CNc1cc(-c2cn([C@@H]3COC[C@H]3OC)c3ccccc23)nc2c(C(=O)N[C@H]3CC[C@H]3O)cnn12` [Compound I-787] it was less than 0.1 µM; in that of `CNc1cc(-c2cn([C@H]3COC[C@@H]3OC)c3ccccc23)nc2c(C(=O)N[C@H]3CC[C@H]3O)cnn12` [Compound I-790], less than 0.1 µM. In the case of `CNc1cc(-c2cn(CCOC)c3ncccc23)nc2c(C(=O)NC3CC[C@@H]3OC)cnn12` (stereo partly shown) [Compound I-795] it was less than 0.1 µM; in that of `CNc1cc(-c2cn([C@H]3CCOC[C@H]3OC)c3ncccc23)nc2c(C(=O)N[C@H]3CC[C@@H]3F)cnn12` [Compound I-796], less than 0.1 µM.

For the compound `CNc1cc(-c2cn([C@@H]3CCOC[C@@H]3OC)c3ncccc23)nc2c(C(=O)N[C@H]3CC[C@@H]3F)cnn12` [Compound I-798], the half-inhibitory concentration (IC50) was less than 0.1 µM. In the case of `CNc1cc(-c2cn([C@H]3CCOC[C@@H]3F)c3ncccc23)nc2c(C(=O)N[C@H]3CC[C@@H]3OC)cnn12` [Compound I-802] it was less than 0.1 µM; in that of `CNc1cc(-c2cn([C@@H]3CCOC[C@H]3F)c3ncccc23)nc2c(C(=O)N[C@H]3CC[C@@H]3OC)cnn12` [Compound I-804], less than 0.1 µM; in that of `CNc1cc(-c2cn([C@@H]3CCC4(C3)OCCO4)c3ncccc23)nc2c(C(=O)N[C@H]3CC[C@@H]3OC)cnn12` [Compound I-806], less than 0.1 µM. In the case of `CNc1cc(-c2cn([C@H]3CCC4(C3)OCCO4)c3ncccc23)nc2c(C(=O)N[C@H]3CC[C@@H]3OC)cnn12` [Compound I-808] it was less than 0.1 µM; in that of `CNc1cc(-c2cn([C@H]3CCOC[C@H]3OC)c3ncccc23)nc2c(C(=O)N[C@@H]3CCC3(F)F)cnn12` [Compound I-811], less than 0.1 µM. In the case of `CNc1cc(-c2cnc3n([C@H]4COC[C@@H]4O)cccc2-3)nc2c(C(=O)NC3CC3)cnn12` [Compound I-816] it was less than 0.1 µM; in that of `CNc1cc(-c2cnc3n([C@@H]4COC[C@H]4O)cccc2-3)nc2c(C(=O)NC3CC3)cnn12` [Compound I-817], less than 0.1 µM. For the compound `CNc1cc(-c2cnc3n([C@H]4CCOC[C@@H]4O)cccc2-3)nc2c(C(=O)NC3CC3)cnn12` [Compound I-819], the 50% inhibitory concentration (IC50) was less than 0.1 µM. Under `CNc1cc(-c2cnc3n([C@H]4COC[C@@H]4O)cccc2-3)nc2c(C(=O)N[C@@H]3C[C@@H]3F)cnn12` [Compound I-820] stands less than 0.1 µM.

As to `CNc1cc(-c2cnc3n([C@@H]4CCOC[C@H]4O)cccc2-3)nc2c(C(=O)N[C@@H]3C[C@@H]3F)cnn12` [Compound I-824], the half-inhibitory concentration (IC50) was less than 0.1 µM.

The compound `CNc1cc(-c2cnc3n([C@H]4CCOC[C@@H]4O)cccc2-3)nc2c(C(=O)N[C@@H]3C[C@@H]3F)cnn12` [Compound I-825] yielded an IC50 of less than 0.1 µM.

Turning to `CNc1cc(-c2cnc3n([C@@H]4COC[C@H]4O)cccc2-3)nc2c(C(=O)NC3CC[C@@H]3F)cnn12` (stereo partly shown) [Compound I-827], the concentration for half-maximal inhibition (IC50) is less than 0.1 µM. With `CNc1cc(-c2cnc3n([C@H]4COC[C@@H]4O)cccc2-3)nc2c(C(=O)N[C@H]3CC[C@@H]3F)cnn12` [Compound I-828], the IC50 is less than 0.1 µM. Under `CNc1cc(-c2cnc3n([C@@H]4COC[C@H]4O)cccc2-3)nc2c(C(=O)N[C@H]3CC[C@@H]3F)cnn12` [Compound I-830] stands less than 0.1 µM; under `CNc1cc(-c2cnc3n([C@H]4COC[C@@H]4OC)cccc2-3)nc2c(C(=O)N[C@H]3CC[C@@H]3F)cnn12` [Compound I-833], less than 0.1 µM. In the case of `CNc1cc(-c2cnc3n([C@@H]4COC[C@H]4OC)cccc2-3)nc2c(C(=O)NC3CC[C@@H]3F)cnn12` (stereo partly shown) [Compound I-835] it was less than 0.1 µM.
